Assay results published in patent publication US11306063B2, “Heterocyclic naphthoquinones derivatives for use in the treatment of cancers including Cushing disease” (Commissariat a l'Energie Atomique et aux Energies …, priority 2016, dated 2022).
Read-outs that look alike come from different tables or passages of the source. Values belong to the compound of their own block, whether it stands above or below them.

How the values were obtained:
Type in all cases: biochemical
[1] = target: T1, USP2 full length (USP2^FL) (Homo sapiens, UniProt O75604); experiment: Inhibition of Ub-AMC hydrolysis by USP2 full length; settings: Ub-AMC at 1 μM, Table 1a; for inhibition at 1 µM: 1 μM compound; for inhibition at 5 µM: 5 μM compound; for inhibition at 25 µM: 25 μM compound; for inhibition at 50 µM: 50 μM compound
T1 construct: purchased BioSciences 80352
T1 sequence (O75604 1-605): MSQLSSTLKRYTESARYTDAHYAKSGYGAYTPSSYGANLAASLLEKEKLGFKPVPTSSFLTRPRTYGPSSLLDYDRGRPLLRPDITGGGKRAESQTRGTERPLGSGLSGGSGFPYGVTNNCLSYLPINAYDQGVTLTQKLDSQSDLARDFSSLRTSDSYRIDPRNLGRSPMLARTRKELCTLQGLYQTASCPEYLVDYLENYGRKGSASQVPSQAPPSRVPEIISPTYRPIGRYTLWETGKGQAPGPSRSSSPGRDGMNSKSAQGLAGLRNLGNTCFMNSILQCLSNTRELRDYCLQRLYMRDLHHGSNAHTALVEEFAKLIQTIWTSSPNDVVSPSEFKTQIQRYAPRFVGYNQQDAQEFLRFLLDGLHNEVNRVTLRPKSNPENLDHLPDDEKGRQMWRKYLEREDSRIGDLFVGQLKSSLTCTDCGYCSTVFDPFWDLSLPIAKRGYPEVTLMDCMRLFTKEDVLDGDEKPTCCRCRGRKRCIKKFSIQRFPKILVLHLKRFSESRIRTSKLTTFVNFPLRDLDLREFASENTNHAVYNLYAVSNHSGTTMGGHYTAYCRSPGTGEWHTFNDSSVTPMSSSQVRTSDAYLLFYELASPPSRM
Experimental: (§1) Enzymatic assay was performed in a HEPES buffer (50 mM pH7.6 1 mM DTT, 2% glycerol, 0.5 mM EDTA) or in a Tris buffer (40 mM pH7.4 1 mM DTT, 5% glycerol, 0.05 mg/ml BSA) respectively, following manufacturer's instructions. Compounds were added to the reaction mixture just prior to the substrate. The enzymatic reaction kinetics was monitored through the apparition of fluorescence due to the hydrolysis of the peptidyl Ub-AMC or Ub-Rho bound over 20 or 30 minutes.

[2] = target: T2, USP8^CD (purified catalytic domain of USP8) (Homo sapiens, UniProt P40818); experiment: Inhibition of purified USP8^CD enzymatic activity (Ub-AMC or Ub-Rho substrate); settings: for inhibition at 1 µM: 1 μM compound
T2 construct: the purified catalytic domain of USP8 (USP8^CD, in-house purified); made in house; host or cells: E. coli BL21 Gold
T2 sequence (P40818 777-1109 limits assumed): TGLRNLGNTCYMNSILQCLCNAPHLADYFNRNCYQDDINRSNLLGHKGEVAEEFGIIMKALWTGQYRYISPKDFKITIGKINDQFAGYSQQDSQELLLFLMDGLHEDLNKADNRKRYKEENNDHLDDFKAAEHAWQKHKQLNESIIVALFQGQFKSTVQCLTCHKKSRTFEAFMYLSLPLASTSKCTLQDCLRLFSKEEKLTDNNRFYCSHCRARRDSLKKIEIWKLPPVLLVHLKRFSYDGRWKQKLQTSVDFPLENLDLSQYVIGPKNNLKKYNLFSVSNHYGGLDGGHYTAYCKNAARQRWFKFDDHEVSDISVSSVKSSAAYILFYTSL
Experimental: (§2) USP2CD or USP8CD were expressed in E. coli BL21 Gold. Cells were grown in LB Miller to mid-log phase and induced by addition of 0.5 mM IPTG for USP2CD for 5 h at 20° C., while 1 mM IPTG was added for USP8CD for 3 h at 37° C. Then, cells were harvested and frozen at −80° C.
For His-tagged USP8CD, cells were resuspended in buffer A (50 mM TRIS pH 8.0, 500 mM NaCl, 2 mM Imidazole) and lysed using a sonicator. The lysate was clarified by centrifugation and applied to Ni Sepharose6 Fast Flow resin (GE Healthcare). The resin was sequentially washed first with buffer A containing 10 mM Imidazole then with buffer A containing 20 mM Imidazole, and finally with buffer A containing 50 mM Imidazole. Protein sample was eluted from the resin using buffer A containing 300 mM Imidazole. The eluted protein was buffer exchanged by gel-filtration on a Superdex 200 10/300 GL column (GE Healthcare) equilibrated in Buffer B (20 mM HEPES pH 7.5, 300 mM NaCl, 2 mM dithiothreitol (DTT)).
as §1
(§3) Medium value out of duplicates is reported.

[3] = target: T3, USP2^CD (purified catalytic domain of USP2) (Homo sapiens, UniProt O75604); experiment: Inhibition of purified USP2^CD enzymatic activity (Ub-AMC or Ub-Rho substrate); settings: for inhibition at 1 µM: 1 μM compound; for inhibition at 5 µM: 5 μM compound
T3 construct: The purified catalytic domain of USP2 (USP2^CD, in-house purified); His; made in house; host or cells: E. coli BL21 Gold
T3 sequence (O75604 267-599 limits assumed): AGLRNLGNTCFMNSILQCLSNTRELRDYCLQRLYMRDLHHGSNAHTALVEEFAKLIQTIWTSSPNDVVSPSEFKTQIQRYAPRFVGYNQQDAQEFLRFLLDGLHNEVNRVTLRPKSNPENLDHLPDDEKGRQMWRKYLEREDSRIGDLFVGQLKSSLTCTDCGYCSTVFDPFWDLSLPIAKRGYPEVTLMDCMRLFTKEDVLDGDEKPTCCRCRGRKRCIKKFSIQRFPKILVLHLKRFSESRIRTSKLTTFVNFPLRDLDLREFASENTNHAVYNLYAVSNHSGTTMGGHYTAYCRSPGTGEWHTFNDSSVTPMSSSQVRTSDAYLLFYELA
Experimental: as §2
For His-tagged USP2CD, cells were resuspended in buffer C (10 mM TRIS pH 8.0, 100 mM NaCl, 10 mM Imidazole) and lysed using a sonicator. The lysate was clarified by centrifugation and applied to Ni Sepharose6 Fast Flow resin (GE Healthcare). The resin was sequentially washed with buffer C, then with buffer C containing 50 mM Imidazole. Protein sample was eluted from the resin using buffer C containing 250 mM Imidazole. The eluted protein was buffer exchanged by gel-filtration on a Superdex 200 10/300 GL column (GE Healthcare) equilibrated in Buffer D (15 mM Bis-TRIS pH 6.0, 100 mM NaCl, 1 mM dithiothreitol (DTT)).
as §1, §3

[4] = 0.1 μM compound, Ub-AMC at 1 μM, Table 1a
[5] = 0.5 μM compound, Ub-AMC at 1 μM, Table 1a
[6] = 5 μM compound, Ub-AMC at 1 μM, Table 1a
[7] = 25 μM compound, Ub-AMC at 1 μM, Table 1a
[8] = 50 μM compound, Ub-AMC at 1 μM, Table 1a
[9] = Ub-AMC substrate at 1 μM, Table 2b, read-out: IC50 USP2 CD
[10] = Ub-AMC substrate at 1 μM, Table 2b, read-out: IC50 USP8 CD

inhibition at 1 µM [1]: 0%
inhibition at 5 µM [1]: 28%
inhibition at 25 µM [1]: 58%
inhibition at 50 µM [1]: 94%
USP8^CD % inhibition [2, 4]: 6%
USP8^CD % inhibition [2, 5]: 25%
inhibition at 1 µM ([2]; Ub-AMC at 1 μM, Table 1a): 7%
USP8^CD % inhibition [2, 6]: 43%
USP8^CD % inhibition [2, 7]: 100%
USP8^CD % inhibition [2, 8]: 86%
Compound: CC/C=C/c1nc2c(nc1/C=C/CC)C(=O)c1ccccc1C2=O [PCR8156]

IC50 ([3]; Ub-Rhodamine substrate, Table 2a, read-out: IC50 against purified USP2^CD): 1700 nM
inhibition at 1 µM [1]: 46%
inhibition at 5 µM [1]: 79%
inhibition at 25 µM [1]: 94%
inhibition at 50 µM [1]: 93%
USP8^CD % inhibition [2, 4]: 42%
USP8^CD % inhibition [2, 5]: 97%
inhibition at 1 µM ([2]; Ub-AMC at 1 μM, Table 1a): 98%
IC50 ([2]; Ub-Rhodamine substrate, Table 2a, read-out: IC50 against purified USP8^CD): 50 nM
Compound: O=C1c2ccccc2C(=O)c2nc(CS(=O)(=O)c3ccc([N+](=O)[O-])cc3)c(CS(=O)(=O)c3ccc([N+](=O)[O-])cc3)nc21 [PCR7991]

inhibition at 1 µM [1]: 0%
inhibition at 5 µM [1]: 22%
inhibition at 25 µM [1]: 70%
inhibition at 50 µM [1]: 99%
USP8^CD % inhibition [2, 4]: 17%
USP8^CD % inhibition [2, 5]: 3%
inhibition at 1 µM ([2]; Ub-AMC at 1 μM, Table 1a): 13%
USP8^CD % inhibition [2, 6]: 61%
USP8^CD % inhibition [2, 7]: 97%
USP8^CD % inhibition [2, 8]: 100%
Compound: O=C1c2ccccc2C(=O)c2nc(CS(=O)(=O)c3cccs3)c(CS(=O)(=O)c3cccs3)nc21 [PCR7997]

inhibition at 1 µM [1]: 46%
inhibition at 5 µM [1]: 74%
inhibition at 25 µM [1]: 78%
inhibition at 50 µM [1]: 92%
USP8^CD % inhibition [2, 4]: 1%
USP8^CD % inhibition [2, 5]: 13%
USP8^CD % inhibition [2, 8]: 36%
Compound: O=C1c2ccccc2C(=O)c2nc(CS(=O)(=O)c3ccccc3)c(CS(=O)(=O)c3ccccc3)nc21 [PCR7986]

inhibition at 1 µM [1]: 33%
inhibition at 5 µM [1]: 49%
inhibition at 25 µM [1]: 59%
inhibition at 50 µM [1]: 95%
USP8^CD % inhibition [2, 4]: 1%
USP8^CD % inhibition [2, 5]: 20%
inhibition at 1 µM ([2]; Ub-AMC at 1 μM, Table 1a): 55%
USP8^CD % inhibition [2, 6]: 23%
USP8^CD % inhibition [2, 7]: 61%
USP8^CD % inhibition [2, 8]: 98%
Compound: Cc1ccc(S(=O)(=O)Cc2nc3c(nc2CS(=O)(=O)c2ccc(C)cc2)C(=O)c2ccccc2C3=O)cc1 [PCR7985]

IC50 [3, 9]: 6000 nM
inhibition at 1 µM [1]: 30%
inhibition at 5 µM [1]: 50%
inhibition at 25 µM [1]: 89%
inhibition at 50 µM [1]: 99%
USP8^CD % inhibition [2, 4]: 11%
USP8^CD % inhibition [2, 5]: 35%
inhibition at 1 µM ([2]; Ub-AMC at 1 μM, Table 1a): 6%
USP8^CD % inhibition [2, 6]: 43%
USP8^CD % inhibition [2, 7]: 90%
USP8^CD % inhibition [2, 8]: 100%
IC50 [2, 10]: 2100 nM
Compound: O=C1c2ccccc2C(=O)c2nc(CCl)c(CCl)nc21 [PCR8146]

inhibition at 1 µM [1]: 8%
inhibition at 5 µM [1]: 54%
inhibition at 25 µM [1]: 98%
inhibition at 50 µM [1]: 98%
inhibition at 1 µM ([2]; Ub-AMC at 1 μM, Table 1a): 0%
USP8^CD % inhibition [2, 6]: 22%
USP8^CD % inhibition [2, 7]: 100%
USP8^CD % inhibition [2, 8]: 100%
Compound: O=C1c2ccccc2C(=O)c2nc(C=C3CCCC3)c(C=C3CCCC3)nc21 [PCR8153]

inhibition at 1 µM [1]: 25%
inhibition at 5 µM [1]: 51%
inhibition at 25 µM [1]: 85%
inhibition at 50 µM [1]: 95%
inhibition at 1 µM ([2]; Ub-AMC at 1 μM, Table 1a): 10%
USP8^CD % inhibition [2, 6]: 70%
USP8^CD % inhibition [2, 7]: 100%
USP8^CD % inhibition [2, 8]: 100%
Compound: Cc1cc(C)c(S(=O)(=O)Cc2nc3c(nc2CS(=O)(=O)c2c(C)cc(C)cc2C)C(=O)c2ccccc2C3=O)c(C)c1 [PCR7996]

inhibition at 1 µM [1]: 29%
inhibition at 5 µM [1]: 59%
inhibition at 25 µM [1]: 58%
inhibition at 50 µM [1]: 98%
USP8^CD % inhibition [2, 4]: 0%
USP8^CD % inhibition [2, 5]: 16%
inhibition at 1 µM ([2]; Ub-AMC at 1 μM, Table 1a): 34%
USP8^CD % inhibition [2, 6]: 22%
USP8^CD % inhibition [2, 7]: 101%
USP8^CD % inhibition [2, 8]: 102%
Compound: O=C1c2ccccc2C(=O)c2nc(CS(=O)(=O)c3ccc(F)cc3)c(CS(=O)(=O)c3ccc(F)cc3)nc21 [PCR7993]

inhibition at 0.01 µM ([3]; 0.01 μM compound, Table 1c): 19%
inhibition at 0.05 µM ([3]; 0.05 μM compound, Table 1c): 3%
inhibition at 0.1 µM ([3]; 0.1 μM compound, Table 1c): 3%
inhibition at 0.5 µM ([3]; 0.5 μM compound, Table 1c): 23%
inhibition at 1 µM ([3]; Table 1b): 0%
inhibition at 1 µM ([3]; Table 1c): 37%
inhibition at 5 µM ([3]; Table 1b): 1%
inhibition at 5 µM ([3]; Table 1c): -10%
inhibition at 10 µM ([3]; 10 μM compound, Table 1c): 17%
inhibition at 25 µM ([3]; 25 μM compound, Table 1b): 16%
inhibition at 50 µM ([3]; 50 μM compound, Table 1b): 30%
IC50 [3, 9]: > 10000 nM
inhibition at 0.01 µM ([2]; 0.01 μM compound, Table 1d): 24%
inhibition at 0.05 µM ([2]; 0.05 μM compound, Table 1d): 16%
inhibition at 0.1 µM ([2]; 0.1 μM compound, Table 1d): 14%
inhibition at 0.5 µM ([2]; 0.5 μM compound, Table 1d): 18%
inhibition at 1 µM ([2]; Table 1b): 68%
inhibition at 1 µM ([2]; Table 1d): 64%
inhibition at 5 µM ([2]; 5 μM compound, Table 1b): 51%
inhibition at 5 µM ([2]; 5 μM compound, Table 1d): 52%
inhibition at 10 µM ([2]; 10 μM compound, Table 1d): 51%
inhibition at 25 µM ([2]; 25 μM compound, Table 1b): 70%
inhibition at 50 µM ([2]; 50 μM compound, Table 1b): 83%
IC50 [2, 10]: 400 nM
IC50 ([2]; Ub-Rhodamine substrate at 0.1 μM, Table 2c, read-out: IC50 USP8 CD): 400 nM
Compound: O=C1c2ccccc2C(=O)c2nc(CS(=O)(=O)c3cccc(Cl)c3)c(CS(=O)(=O)c3cccc(Cl)c3)nc21 [OVM15]
